Results taken from patent publication US20090118365A1, “Use of Prodrugs of GABA B Agonists for Treating Neuropathic and Musculoskeletal Pain” (XenoPort, Inc, priority 2007, published 2009).

Assays:
[1] = in vivo; cited from earlier work
[2] = male, cynomolgus monkey, in vivo
Description: The following method can be used to determine the oral bioavailability of GABAB agonist prodrugs provided by the present disclosure in Cymologous monkeys, and therefore the appropriateness of the GABAB agonist prodrugs for use in oral sustained release dosage forms for treating neuropathic and musculoskeletal pain.
All plasma samples were subsequently analyzed for (R)-baclofen and intact prodrug using the LC/MS/MS assay described above.

[3] = rat, in vivo, 10 mg
Protocol: Rats were obtained commercially and were pre-cannulated in the both the ascending colon and the jugular vein. Animals were conscious at the time of the experiment. All animals were fasted overnight and until 4 hours post-dosing. […] Blood samples were analyzed as described according to the following procedure. […]
An API 2000 LC/MS/MS spectrometer equipped with Shimadzu 10ADVp binary pumps and a CTC HTS-PAL autosampler was used in the analysis. […] The peaks were integrated using Analyst 1.2 quantitation software.

Compound | elimination half-life [1] [h] | oral bioavailability as (R)-baclofen [2] | maximum plasma concentration of (R)-baclofen (Cmax) relative to colonic administration of (R)-baclofen itself [3] [fold]
NCC(CC(=O)O)c1ccc(Cl)cc1 (racemic) [baclofen, (±)-4-Amino-3-(4-chlorophenyl)butanoic acid] | 3 to 4 | – | –
CC(C)C(=O)O[C@@H](OC(=O)NC[C@H](CC(=O)O)c1ccc(Cl)cc1)C(C)C [compound (4), (3R)-4-{[(1S)-2-methyl-1-(2-methylpropanoyloxy)propoxy]carbonylamino}-3-(4-chlorophenyl)butanoic acid] | – | greater than 80% | > 2
